Data from ChEMBL document CHEMBL5252611, “2- and 3-Fluoro-3-deaza-1',6'-isoneplanocin: Synthesis and antiviral properties (including Ebola and Marburg)” (Bioorg Med Chem Lett, 2023).
The source made the active and inactive calls. The calls are words filed in the database; no cut-off is given here.

Tests used:
Punta Toro virus = experiment: Antiviral activity against Punta Toro virus Adames infected in African green monkey Vero 76 cells; type: functional, organism-based
[1] = system: Middle East respiratory syndrome-related coronavirus; experiment: Antiviral activity against Middle East respiratory syndrome-related coronavirus EMC infected in African green monkey Vero 76 cells; type: functional, organism-based
Lassa virus = experiment: Antiviral activity against Lassa virus Josiah infected in African green monkey Vero cells; type: functional, organism-based; conditions: Mammarenavirus lassaense
Hepatitis B virus [2] = experiment: Antiviral activity against HBV ayw1 infected in human HepG2.2.15 cells; type: functional, organism-based; conditions: ayw1, HepG2.2.15
[3] = Cytotoxicity against human HepG2.2.15 cells; type: toxicity, cell-based, HepG2 2.2.15
[4] = Selectivity index, ratio of CC50 for cytotoxicity against human HepG2.2.15 cells to EC50 for antiviral activity against HBV ayw1 infected in human HepG2.2.15 cells; type: toxicity, cell-based; conditions: read-out: Ratio CC50/EC50
Measles morbillivirus [5] = experiment: Antiviral activity against Measles virus CC infected in African green monkey Vero 76 cells by visual analysis; type: functional, organism-based
[6] = Cytotoxicity against African green monkey Vero 76 cells infected with Measles virus CC by visual analysis; type: toxicity, cell-based; conditions: chlorocebus sabaeus
[7] = Selectivity index, ratio of CC50 for cytotoxicity against African green monkey Vero 76 cells infected with Measles virus CC by visual analysis to EC50 for antiviral activity against Measles virus CC infected in African green monkey Vero 76 cells by visual analysis; type: toxicity, cell-based; conditions: read-out: Ratio CC50/EC50
Measles morbillivirus [8] = experiment: Antiviral activity against Measles virus CC infected in African green monkey Vero 76 cells by neutral red dye based analysis; type: functional, organism-based
[9] = Cytotoxicity against African green monkey Vero 76 cells infected with Measles virus CC by neutral red dye based analysis; type: toxicity, cell-based; conditions: chlorocebus sabaeus
[10] = Selectivity index, ratio of CC50 for cytotoxicity against African green monkey Vero 76 cells by neutral red dye based analysis to EC50 for antiviral activity against Measles virus CC infected in African green monkey Vero 76 cells by neutral red dye based analysis; type: toxicity, cell-based; conditions: read-out: Ratio CC50/EC50
Rift Valley fever virus [11] = experiment: Antiviral activity against Rift Valley fever virus MP-12 infected in African green monkey Vero 76 cells by visual analysis; type: functional, organism-based; conditions: MP-12, Vero 76
[12] = Cytotoxicity against African green monkey Vero 76 cells infected with Rift Valley fever virus MP-12 by visual analysis; type: toxicity, cell-based; conditions: chlorocebus sabaeus
[13] = (§1) Selectivity index, ratio of CC50 for cytotoxicity against African green monkey Vero 76 cells infected with Rift Valley fever virus MP-12 by visual analysis to EC50 for antiviral activity against Rift Valley fever virus MP-12 infected in African green monkey Vero 76 cells by visual analysis; type: toxicity, cell-based; conditions: read-out: Ratio CC50/EC50
Rift Valley fever virus [14] = experiment: Antiviral activity against Rift Valley fever virus MP-12 infected in African green monkey Vero 76 cells by neutral red dye based analysis; type: functional, organism-based; conditions: MP-12, Vero 76
[15] = Cytotoxicity against African green monkey Vero 76 cells infected with Rift Valley fever virus MP-12 by neutral red dye based analysis; type: toxicity, cell-based; conditions: chlorocebus sabaeus
[16] = as §1, with “neutral red dye based” for “visual”; type: toxicity, cell-based; conditions: read-out: Ratio CC50/EC50
Tacaribe virus [17] = experiment: Antiviral activity against Tacaribe virus TRVL11573 infected in African green monkey Vero cells by visual analysis; type: functional, organism-based; conditions: Mammarenavirus tacaribeense
[18] = Cytotoxicity against African green monkey Vero cells infected with Tacaribe virus TRVL11573 by visual analysis; type: toxicity, cell-based; conditions: chlorocebus sabaeus
[19] = (§2) Selectivity index, ratio of CC50 for cytotoxicity against African green monkey Vero cells infected with Tacaribe virus TRVL11573 by visual analysis to EC50 for antiviral activity against Tacaribe virus TRVL11573 infected in African green monkey Vero cells by visual analysis; type: toxicity, cell-based; conditions: read-out: Ratio CC50/EC50
Tacaribe virus [20] = experiment: Antiviral activity against Tacaribe virus TRVL11573 infected in African green monkey Vero cells by neutral red dye based analysis; type: functional, organism-based; conditions: Mammarenavirus tacaribeense
[21] = Cytotoxicity against African green monkey Vero cells infected with Tacaribe virus TRVL11573 by neutral red dye based analysis; type: toxicity, cell-based; conditions: chlorocebus sabaeus
[22] = as §2, with “neutral red dye based” for “visual”; type: toxicity, cell-based; conditions: read-out: Ratio CC50/EC50
Pichinde virus [23] = experiment: Antiviral activity against Pichinde virus AN 4763 infected in African green monkey Vero cells by visual analysis; type: functional, organism-based; conditions: AN 4763, Vero
[24] = Cytotoxicity against African green monkey Vero cells infected in Pichinde virus AN 4763 by visual analysis; type: toxicity, cell-based; conditions: chlorocebus sabaeus, Vero cells infected with Pichinde virus AN 4763
[25] = Selectivity index, ratio of CC50 for cytotoxicity against African green monkey Vero cells infected with Pichinde virus AN 4763 by visual analysis to EC50 for antiviral activity against Pichinde virus AN 4763 infected in African green monkey Vero cells by visual analysis; type: toxicity, cell-based; conditions: read-out: Ratio CC50/EC50
Pichinde virus [26] = experiment: Antiviral activity against Pichinde virus AN 4763 infected in African green monkey Vero cells by neutral red dye based analysis; type: functional, organism-based; conditions: AN 4763, Vero
[27] = Cytotoxicity against African green monkey Vero cells infected in Pichinde virus AN 4763 by neutral red dye based analysis; type: toxicity, cell-based; conditions: chlorocebus sabaeus, Vero cells infected with Pichinde virus AN 4763
[28] = Selectivity index, ratio of CC50 for cytotoxicity against African green monkey Vero cells infected with Pichinde virus AN 4763 by neutral red dye based analysis to EC50 for antiviral activity against Pichinde virus AN 4763 infected in African green monkey Vero cells by neutral red dye based analysis; type: toxicity, cell-based; conditions: read-out: Ratio CC50/EC50
Chikungunya virus = experiment: Antiviral activity against Chikungunya virus S27 infected in African green monkey Vero 76 cells; type: functional, organism-based
dengue virus type 2 = experiment: Antiviral activity against Dengue virus 2 New Guinea infected in human Huh-7 cells; type: functional, organism-based
[29] = system: Japanese encephalitis virus; experiment: Antiviral activity against Japanese encephalitis virus SA 14 infected in African green monkey Vero 76 cells; type: functional, organism-based
Rift Valley fever virus [30] = experiment: Antiviral activity against Rift Valley fever virus MP-12 infected in African green monkey Vero 76 cells; type: functional, organism-based
Tacaribe virus [31] = experiment: Antiviral activity against Tacaribe virus TRVL11573 infected in African green monkey Vero cells; type: functional, organism-based; conditions: Mammarenavirus tacaribeense
Human betaherpesvirus 5 [32] = experiment: Antiviral activity against Human betaherpesvirus 5 AD 169 infected in HFF cells; type: functional, organism-based
[33] = system: Venezuelan equine encephalitis virus; experiment: Antiviral activity against Venezuelan equine encephalitis virus TC-83 infected in African green monkey Vero 76 cells; type: functional, organism-based
Influenza A virus [34] = experiment: Antiviral activity against influenza A virus California/7/2009(H1N1) infected in MDCK cells; type: functional, organism-based
[35] = Cytotoxicity against MDCK cells infected with influenza A virus California/7/2009(H1N1); type: toxicity, cell-based, Canis lupus familiaris; conditions: dog
[36] = Selectivity index, ratio of CC50 for cytotoxicity against MDCK cells infected with influenza A virus California/7/2009(H1N1) to EC50 for antiviral activity against influenza A virus California/7/2009(H1N1) infected in MDCK cells; type: toxicity, cell-based; conditions: dog; read-out: Ratio CC50/EC50
Norovirus = experiment: Antiviral activity against Norovirus Genogroup 1 infected in human HG23 cells; type: functional, organism-based; conditions: Genogroup 1, HG23
[37] = Cytotoxicity against human HG23 cells infected with Norovirus Genogroup 1; type: toxicity, cell-based
[38] = Selectivity index, ratio of CC50 for cytotoxicity against human HG23 cells infected with Norovirus Genogroup 1 to EC50 for antiviral activity against Norovirus Genogroup 1 infected in human HG23 cells; type: toxicity, cell-based; conditions: read-out: Ratio CC50/EC50
Zaire ebolavirus = experiment: Antiviral activity against Zaire ebolavirus infected in African green monkey Vero cells; type: functional, organism-based
[39] = Cytotoxicity against African green monkey Vero cells infected with Zaire ebolavirus; type: toxicity, cell-based; conditions: chlorocebus sabaeus
[40] = Selectivity index, ratio of CC50 for cytotoxicity against African green monkey Vero cells infected with Zaire ebolavirus to EC50 for antiviral activity against Zaire ebolavirus infected in African green monkey Vero cells; type: toxicity, cell-based; conditions: read-out: Ratio CC50/EC50
Marburgvirus = experiment: Antiviral activity against Marburgvirus Angola infected in African green monkey Vero cells; type: functional, organism-based; conditions: Orthomarburgvirus
[41] = Cytotoxicity against African green monkey Vero cells infected with Marburgvirus Angola; type: toxicity, cell-based; conditions: chlorocebus sabaeus
[42] = Selectivity index, ratio of CC50 for cytotoxicity against African green monkey Vero cells infected with Marburgvirus Angola to EC50 for antiviral activity against Marburgvirus Angola infected in African green monkey Vero cells; type: toxicity, cell-based; conditions: read-out: Ratio CC50/EC50
West Nile virus = experiment: Antiviral activity against West Nile virus Kern 515 infected in African green monkey Vero 76 cells; type: functional, organism-based
Yellow fever virus [43] = experiment: Antiviral activity against Yellow fever virus YFV 17D infected in human Huh-7 cells; type: functional, organism-based
Enterovirus A71 = experiment: Antiviral activity against Human enterovirus 71 Tainan/4643/98 infected in African green monkey Vero 76 cells; type: functional, organism-based
Poliovirus 1 = experiment: Antiviral activity against Human poliovirus 1 Mahoney infected in African green monkey Vero 76 cells; type: functional, organism-based
Rift Valley fever virus [44] = experiment: Antiviral activity against Rift Valley fever virus; type: functional, organism-based
Tacaribe virus [45] = experiment: Antiviral activity against Tacaribe virus; type: functional, organism-based; conditions: Mammarenavirus tacaribeense
Human betaherpesvirus 5 [46] = experiment: Antiviral activity against Human betaherpesvirus 5; type: functional, organism-based
Influenza A virus [47] = experiment: Antiviral activity against influenza A virus H5N1; type: functional, organism-based
Influenza B virus = experiment: Antiviral activity against influenza B virus; type: functional, organism-based
Yellow fever virus [48] = experiment: Antiviral activity against Yellow fever virus; type: functional, organism-based
Hepatitis B virus [49] = experiment: Antiviral activity against HBV; type: functional, organism-based
Measles morbillivirus [50] = experiment: Antiviral activity against Measles virus; type: functional, organism-based

Nc1nc(F)cc2c1ncn2C1=C[C@H](CO)[C@@H](O)[C@H]1O
Activity (Punta Toro virus): inactive
Activity [1]: inactive
Activity (Lassa virus): inactive
EC50 (Hepatitis B virus [2]): 430 nM
CC50 [3]: 48.2 µM
selectivity ratio [4]: 113
EC50 (Measles morbillivirus [5]): 360 nM
CC50 [6]: 114 µM
selectivity ratio [7]: 320
EC50 (Measles morbillivirus [8]): 390 nM
CC50 [9]: 36 µM
selectivity ratio [10]: 91
EC50 (Rift Valley fever virus [11]): 22.1 µM
CC50 [12]: 114 µM
selectivity ratio [13]: 5.2
EC50 (Rift Valley fever virus [14]): 33.2 µM
CC50 [15]: 132 µM
selectivity ratio [16]: 4
EC50 (Tacaribe virus [17]): 10.7 µM
CC50 [18]: 75 µM
selectivity ratio [19]: 7
EC50 (Tacaribe virus [20]): 8.6 µM
CC50 [21]: 50 µM
selectivity ratio [22]: 5.8
EC50 (Pichinde virus [23]): 3.32 µM
CC50 [24]: 46 µM
selectivity ratio [25]: 14
EC50 (Pichinde virus [26]): 2570 nM
CC50 [27]: 50 µM
selectivity ratio [28]: 19
Activity (Chikungunya virus): inactive
Activity (dengue virus type 2): inactive
Activity [29]: inactive
Activity (Rift Valley fever virus [30]): inactive
Activity (Tacaribe virus [31]): inactive
Activity (Human betaherpesvirus 5 [32]): inactive
Activity [33]: inactive

Nc1ncc(F)c2c1ncn2C1=C[C@H](CO)[C@@H](O)[C@H]1O
Activity (Punta Toro virus): inactive
EC50 (Hepatitis B virus [2]): 1280 nM
CC50 [3]: > 357 µM
selectivity ratio [4]: > 2760
EC50 (Influenza A virus [34]): < 360 nM
CC50 [35]: > 357 µM
selectivity ratio [36]: > 1000
EC50 (Norovirus): 640 nM
CC50 [37]: > 357 µM
selectivity ratio [38]: > 2760
EC50 (Zaire ebolavirus): < 100 nM
CC50 [39]: > 100 µM
selectivity ratio [40]: > 538
EC50 (Marburgvirus): < 100 nM
CC50 [41]: > 100 µM
selectivity ratio [42]: > 1000
Activity (Chikungunya virus): inactive
Activity (dengue virus type 2): inactive
Activity [29]: Active
Activity (Human betaherpesvirus 5 [32]): Active
Activity [33]: Active
Activity (West Nile virus): inactive
Activity (Yellow fever virus [43]): inactive
Activity (Enterovirus A71): Active
Activity (Poliovirus 1): Active

Nc1nc(F)cc2c1ncn2[C@@H]1C=C(CO)[C@@H](O)[C@H]1O
Activity (Rift Valley fever virus [44]): Active
Activity (Tacaribe virus [45]): Active
Activity (Human betaherpesvirus 5 [46]): Active
Activity (Influenza A virus [47]): Active
Activity (Influenza B virus): Active

Nc1ncc(F)c2c1ncn2[C@@H]1C=C(CO)[C@@H](O)[C@H]1O
Activity (Human betaherpesvirus 5 [46]): Active
Activity (Yellow fever virus [48]): Active
Activity (Hepatitis B virus [49]): Active
Activity (Measles morbillivirus [50]): Active
